# Results as given in patent publication US9884063B2, “Amido-substituted azole compounds” (Bayer Pharma Aktiengesellschaft, priority 2014, dated 2018).
# Target: T1, TNKS2 (Homo sapiens, UniProt Q9H2K2)
# T1 sequence (Q9H2K2 1-1166): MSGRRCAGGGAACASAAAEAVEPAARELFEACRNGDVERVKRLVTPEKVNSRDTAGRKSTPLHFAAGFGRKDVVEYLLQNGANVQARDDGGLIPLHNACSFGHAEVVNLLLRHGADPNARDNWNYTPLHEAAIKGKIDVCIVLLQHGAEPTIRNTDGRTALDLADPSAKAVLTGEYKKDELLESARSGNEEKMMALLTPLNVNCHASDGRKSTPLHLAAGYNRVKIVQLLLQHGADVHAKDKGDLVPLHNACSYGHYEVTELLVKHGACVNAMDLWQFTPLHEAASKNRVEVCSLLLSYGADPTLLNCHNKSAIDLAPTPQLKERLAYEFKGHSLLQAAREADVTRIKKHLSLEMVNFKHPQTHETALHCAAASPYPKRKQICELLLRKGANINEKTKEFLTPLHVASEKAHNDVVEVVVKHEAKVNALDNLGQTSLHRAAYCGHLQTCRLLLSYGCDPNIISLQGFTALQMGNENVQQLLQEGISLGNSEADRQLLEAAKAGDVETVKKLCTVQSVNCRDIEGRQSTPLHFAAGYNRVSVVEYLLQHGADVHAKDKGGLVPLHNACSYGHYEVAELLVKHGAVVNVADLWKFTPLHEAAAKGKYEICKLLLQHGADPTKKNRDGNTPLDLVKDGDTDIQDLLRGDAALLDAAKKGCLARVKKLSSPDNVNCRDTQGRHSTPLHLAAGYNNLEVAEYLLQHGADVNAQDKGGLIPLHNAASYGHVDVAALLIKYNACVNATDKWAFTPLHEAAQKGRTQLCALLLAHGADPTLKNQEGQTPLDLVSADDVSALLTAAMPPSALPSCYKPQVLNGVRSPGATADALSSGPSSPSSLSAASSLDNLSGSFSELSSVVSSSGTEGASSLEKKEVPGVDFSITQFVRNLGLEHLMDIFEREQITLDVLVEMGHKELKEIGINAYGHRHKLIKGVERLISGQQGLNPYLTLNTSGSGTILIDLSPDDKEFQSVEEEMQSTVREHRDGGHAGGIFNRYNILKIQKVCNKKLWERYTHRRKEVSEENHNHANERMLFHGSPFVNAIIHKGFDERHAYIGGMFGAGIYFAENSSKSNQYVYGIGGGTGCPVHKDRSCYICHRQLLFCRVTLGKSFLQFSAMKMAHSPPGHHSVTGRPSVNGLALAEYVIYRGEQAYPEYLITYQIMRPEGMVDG
# Test: Modified TNKS2 Assay 2 (auto-parsylation, [3H]-NAD+ SPA)
# Type: biochemical
# Settings: 6 nM TNKS2, 96 well
row,SMILES,IC50
1,"CNC(=O)c1nc[nH]c1C(=O)Nc1ccc(NC(=O)c2ccccc2Cl)nc1 [Example 112, N^5-{6-[(2-chlorobenzoyl)amino]pyridin-3-yl}-N^4-methyl-1H-imidazole-4,5-dicarboxamide]",0.37 µM
2,"COC(=O)c1nc[nH]c1C(=O)Nc1ccc(NC(=O)c2ccccc2Cl)c(OC)c1 [Example 98, methyl 5-({4-[(2-chlorobenzoyl)amino]-3-methoxyphenyl}carbamoyl)-1H-imidazole-4-carboxylate]",0.37 µM
3,"COC(=O)c1nc[nH]c1C(=O)Nc1ccc(NC(=O)c2ccc(F)cc2Cl)c(OC)c1 [Example 94, methyl 5-({4-[(2-chloro-4-fluorobenzoyl)amino]-3-methoxyphenyl}carbamoyl)-1H-imidazole-4-carboxylate]",0.5 µM
4,"COC(=O)c1nc[nH]c1C(=O)Nc1ccc(NC(=O)c2ccc(F)cc2)c(OC)c1 [Example 102, methyl 5-({4-[(4-fluorobenzoyl)amino]-3-methoxyphenyl}carbamoyl)-1H-imidazole-4-carboxylate]",> 10 µM
5,"CNC(=O)c1[nH]c(C(C)C)nc1C(=O)Nc1ccc(NC(=O)c2ccc(F)cc2Cl)cc1 [Example 106, N^4-{4-[(2-chloro-4-fluorobenzoyl)amino]phenyl}-2-isopropyl-N^5-methyl-1H-imidazole-4,5-dicarboxamide]",> 10 µM
6,"COc1cc(NC(=O)c2[nH]cnc2C(=O)NCCN2CCCCC2)ccc1NC(=O)c1ccc(F)cc1Cl [Example 97, N^5-{4-[(2-chloro-4-fluorobenzoyl)amino]-3-methoxyphenyl}-N^4-[2-(piperidin-1-yl)ethyl]-1H-imidazole-4,5-dicarboxamide]",0.005 µM
7,"CN(C)CCNC(=O)c1nc[nH]c1C(=O)Nc1ccc(NC(=O)c2ccccc2Cl)nc1 [Example 113, N^5-{6-[(2-chlorobenzoyl)amino]pyridin-3-yl}-N^4-[2-(dimethylamino)ethyl]-1H-imidazole-4,5-dicarboxamide]",0.04 µM

# Continued, values first:
row,IC50,SMILES
1,0.05 µM,"Cc1cc(NC(=O)c2[nH]cnc2C(=O)NCCN2CCCCC2)ccc1NC(=O)c1ccccc1Cl [Example 89, N^5-{4-[(2-chlorobenzoyl)amino]-3-methylphenyl}-N^4-[2-(piperidin-1-yl)ethyl]-1H-imidazole-4,5-dicarboxamide]"
2,0.04 µM,"COc1cc(NC(=O)c2[nH]cnc2C(=O)NCCN(C)C)ccc1NC(=O)c1ccc(F)cc1Cl [Example 96, N^5-{4-[(2-chloro-4-fluorobenzoyl)amino]-3-methoxyphenyl}-N^4-[2-(dimethylamino)ethyl]-1H-imidazole-4,5-dicarboxamide]"
3,0.47 µM,"CNC(=O)c1nc[nH]c1C(=O)Nc1ccc(NC(=O)c2ccc(F)cc2Cl)c(OC)c1 [Example 95, N^5-{4-[(2-chloro-4-fluorobenzoyl)amino]-3-methoxyphenyl}-N^4-methyl-1H-imidazole-4,5-dicarboxamide]"
4,0.16 µM,"COc1cc(NC(=O)c2[nH]cnc2C(=O)NCCN(C)C)ccc1NC(=O)c1ccccc1Cl [Example 100, N^5-{4-[(2-chlorobenzoyl)amino]-3-methoxyphenyl}-N^4-[2-(dimethylamino)ethyl]-1H-imidazole-4,5-dicarboxamide]"
5,3.4 µM,"COC(=O)c1nc[nH]c1C(=O)Nc1ccc(NC(=O)c2ccccc2Cl)c(C)c1 [Example 86, methyl-5-({4-[(2-chlorobenzoyl)amino]-3-methylphenyl}carbamoyl)-1H-imidazole-4-carboxylate]"
